Assay [1] has as its target T1, Serine/threonine-protein kinase Nek2 (Homo sapiens) (UniProt P51955).
T1 sequence (whole entry): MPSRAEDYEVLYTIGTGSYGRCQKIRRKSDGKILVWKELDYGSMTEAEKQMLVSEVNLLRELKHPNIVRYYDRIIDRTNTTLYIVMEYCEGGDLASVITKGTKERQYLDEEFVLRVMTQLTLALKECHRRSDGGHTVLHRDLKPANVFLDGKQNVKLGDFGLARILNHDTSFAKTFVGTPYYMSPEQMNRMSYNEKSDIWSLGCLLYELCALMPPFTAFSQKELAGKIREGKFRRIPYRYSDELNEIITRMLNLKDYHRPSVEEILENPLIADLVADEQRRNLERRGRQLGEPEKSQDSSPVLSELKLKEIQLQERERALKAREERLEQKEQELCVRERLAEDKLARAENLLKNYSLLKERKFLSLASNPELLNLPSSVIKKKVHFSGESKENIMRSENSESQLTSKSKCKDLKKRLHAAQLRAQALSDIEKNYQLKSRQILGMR
Put plainly: Inhibition of NEK2 (unknown origin) at 1 uM relative to control.

The target of assay [2] is Serine/threonine-protein kinase Nek6 (Homo sapiens) (UniProt Q9HC98). Put plainly: Inhibition of NEK6 (unknown origin) at 1 uM relative to control.
The target of assay [3] is Serine/threonine-protein kinase Nek7 (Homo sapiens) (UniProt Q8TDX7). Briefly: Inhibition of NEK7 (unknown origin) at 1 uM relative to control.
Assay [4] concerns the target T2, Serine/threonine-protein kinase Nek9 (Homo sapiens) (UniProt Q8TD19).
T2 sequence (whole entry): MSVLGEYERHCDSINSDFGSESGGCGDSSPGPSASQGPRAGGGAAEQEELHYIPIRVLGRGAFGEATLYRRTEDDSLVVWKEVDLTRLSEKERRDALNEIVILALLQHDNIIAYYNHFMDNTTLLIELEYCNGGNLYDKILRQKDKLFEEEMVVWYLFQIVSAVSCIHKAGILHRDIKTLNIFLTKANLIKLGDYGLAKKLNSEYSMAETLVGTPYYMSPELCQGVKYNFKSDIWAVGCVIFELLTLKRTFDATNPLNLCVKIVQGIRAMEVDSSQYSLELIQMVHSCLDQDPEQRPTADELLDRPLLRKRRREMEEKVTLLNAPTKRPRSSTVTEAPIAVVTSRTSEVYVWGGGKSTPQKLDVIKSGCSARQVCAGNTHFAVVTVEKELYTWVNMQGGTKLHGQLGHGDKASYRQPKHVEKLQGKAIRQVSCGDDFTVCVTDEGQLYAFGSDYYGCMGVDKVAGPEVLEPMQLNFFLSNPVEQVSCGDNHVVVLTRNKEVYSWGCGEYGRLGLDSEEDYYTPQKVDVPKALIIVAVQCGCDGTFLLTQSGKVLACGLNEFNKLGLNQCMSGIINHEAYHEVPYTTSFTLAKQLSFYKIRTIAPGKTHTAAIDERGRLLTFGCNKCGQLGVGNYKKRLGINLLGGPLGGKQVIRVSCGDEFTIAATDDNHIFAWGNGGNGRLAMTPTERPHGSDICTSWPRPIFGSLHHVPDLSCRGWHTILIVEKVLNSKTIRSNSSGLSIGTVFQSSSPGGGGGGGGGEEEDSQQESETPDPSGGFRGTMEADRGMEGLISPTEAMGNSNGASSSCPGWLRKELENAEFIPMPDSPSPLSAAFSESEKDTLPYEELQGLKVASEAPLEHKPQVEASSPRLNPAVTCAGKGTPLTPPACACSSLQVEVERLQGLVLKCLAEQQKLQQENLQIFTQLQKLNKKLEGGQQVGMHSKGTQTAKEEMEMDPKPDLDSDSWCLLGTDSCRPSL
Put plainly: Inhibition of NEK9 (unknown origin) at 1 uM relative to control.

The target in assay [5] is T3, Serine/threonine-protein kinase Nek1 (Homo sapiens) (UniProt Q96PY6).
T3 sequence (whole entry): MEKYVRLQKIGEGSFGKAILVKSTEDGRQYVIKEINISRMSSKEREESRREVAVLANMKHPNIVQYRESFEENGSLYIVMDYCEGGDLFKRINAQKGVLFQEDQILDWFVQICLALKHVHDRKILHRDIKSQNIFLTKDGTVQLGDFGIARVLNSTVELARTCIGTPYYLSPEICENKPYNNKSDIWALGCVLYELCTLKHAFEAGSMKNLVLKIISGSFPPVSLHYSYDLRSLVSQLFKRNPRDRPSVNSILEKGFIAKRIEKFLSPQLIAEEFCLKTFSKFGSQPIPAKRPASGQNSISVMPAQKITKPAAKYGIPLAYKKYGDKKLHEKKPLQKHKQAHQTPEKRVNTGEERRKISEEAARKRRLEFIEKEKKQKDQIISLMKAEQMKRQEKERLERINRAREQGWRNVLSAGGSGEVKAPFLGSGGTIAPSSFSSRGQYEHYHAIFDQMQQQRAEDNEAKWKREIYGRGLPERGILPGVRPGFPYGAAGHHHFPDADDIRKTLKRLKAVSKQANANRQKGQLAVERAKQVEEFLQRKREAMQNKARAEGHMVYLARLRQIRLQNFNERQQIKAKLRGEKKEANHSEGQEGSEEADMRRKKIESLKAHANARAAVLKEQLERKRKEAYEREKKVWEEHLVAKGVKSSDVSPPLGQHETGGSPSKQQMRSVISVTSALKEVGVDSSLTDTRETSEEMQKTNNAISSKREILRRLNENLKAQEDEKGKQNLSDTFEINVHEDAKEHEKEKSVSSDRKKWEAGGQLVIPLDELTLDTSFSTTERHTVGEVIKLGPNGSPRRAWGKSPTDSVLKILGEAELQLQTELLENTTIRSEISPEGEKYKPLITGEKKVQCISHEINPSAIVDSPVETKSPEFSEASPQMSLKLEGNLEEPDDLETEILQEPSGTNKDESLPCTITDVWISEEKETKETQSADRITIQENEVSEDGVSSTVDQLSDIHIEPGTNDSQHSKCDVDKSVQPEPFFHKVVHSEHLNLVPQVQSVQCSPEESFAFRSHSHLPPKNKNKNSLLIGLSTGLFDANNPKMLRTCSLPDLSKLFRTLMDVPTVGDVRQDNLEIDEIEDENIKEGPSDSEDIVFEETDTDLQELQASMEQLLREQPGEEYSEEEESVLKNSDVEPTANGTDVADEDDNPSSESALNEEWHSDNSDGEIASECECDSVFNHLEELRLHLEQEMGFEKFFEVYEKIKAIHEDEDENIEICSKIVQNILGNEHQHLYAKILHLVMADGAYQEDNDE
Put plainly: Inhibition of NEK1 (unknown origin) at 100 nM relative to control.

Assay [6] has as its target T1, Serine/threonine-protein kinase Nek2 (Homo sapiens). Briefly: Inhibition of NEK2 (unknown origin) at 100 nM relative to control.
For assay [7], the target named is Serine/threonine-protein kinase Nek6 (Homo sapiens) (UniProt Q9HC98). Briefly: Inhibition of NEK6 (unknown origin) at 100 nM relative to control.
The target of assay [8] is Serine/threonine-protein kinase Nek7 (Homo sapiens) (UniProt Q8TDX7). Put plainly: Inhibition of NEK7 (unknown origin) at 100 nM relative to control.
For assay [9], the target named is T2, Serine/threonine-protein kinase Nek9 (Homo sapiens). Briefly: Inhibition of NEK9 (unknown origin) at 100 nM relative to control.
Assay [10] deals with Serine/threonine-protein kinase Nek7 (Homo sapiens) (UniProt Q8TDX7). Briefly: Inhibition of NEK7 (unknown origin) at 3 uM relative to control.
Assay [11] addresses Serine/threonine-protein kinase Nek1 (Homo sapiens, UniProt Q96PY6). Briefly: Inhibition of NEK1 (unknown origin) assessed as dissociation constant.
For assay [12], the target named is Serine/threonine-protein kinase Nek3 (Homo sapiens, UniProt P51956). Put plainly: Inhibition of NEK3 (unknown origin) assessed as dissociation constant.
Assay [13] deals with T4, Serine/threonine-protein kinase Nek9 (Homo sapiens, UniProt Q8TD19). Put plainly: Inhibition of NEK9 (unknown origin) assessed as dissociation constant.
For assay [14], the target named is T4, Serine/threonine-protein kinase Nek9. Briefly: Inhibition of NEK9 (unknown origin).
Assay [15] has as its target Serine/threonine-protein kinase Nek2 (Homo sapiens, UniProt P51955). Put plainly: Inhibition of NEK2 (unknown origin) assessed as dissociation constant.
Assay [16] addresses T1, Serine/threonine-protein kinase Nek2 (Homo sapiens). Briefly: Inhibition of NEK2 (unknown origin) at 10 uM relative to control.
Assay [17] concerns the target T5, Serine/threonine-protein kinase Nek3 (Homo sapiens) (UniProt P51956).
T5 sequence (whole entry): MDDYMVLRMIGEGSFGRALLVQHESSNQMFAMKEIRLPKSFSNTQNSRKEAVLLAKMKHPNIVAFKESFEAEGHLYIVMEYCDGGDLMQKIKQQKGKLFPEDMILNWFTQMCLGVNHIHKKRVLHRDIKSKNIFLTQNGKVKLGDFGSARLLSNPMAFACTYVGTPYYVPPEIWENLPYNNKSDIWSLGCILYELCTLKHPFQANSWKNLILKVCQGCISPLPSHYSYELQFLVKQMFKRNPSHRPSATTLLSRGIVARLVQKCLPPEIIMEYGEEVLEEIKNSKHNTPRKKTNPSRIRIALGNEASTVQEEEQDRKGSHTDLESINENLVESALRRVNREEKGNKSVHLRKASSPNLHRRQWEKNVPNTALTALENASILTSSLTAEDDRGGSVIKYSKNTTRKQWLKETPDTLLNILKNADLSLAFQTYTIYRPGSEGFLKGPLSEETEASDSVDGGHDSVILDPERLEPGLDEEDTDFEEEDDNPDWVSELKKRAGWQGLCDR
Briefly: Inhibition of NEK3 (unknown origin) at 10 uM relative to control.

For assay [18], the target named is Serine/threonine-protein kinase Nek4 (Homo sapiens) (UniProt P51957). Put plainly: Inhibition of NEK4 (unknown origin) at 10 uM relative to control.
The target in assay [19] is T6, Serine/threonine-protein kinase Nek5 (Homo sapiens) (UniProt Q6P3R8).
T6 sequence (whole entry): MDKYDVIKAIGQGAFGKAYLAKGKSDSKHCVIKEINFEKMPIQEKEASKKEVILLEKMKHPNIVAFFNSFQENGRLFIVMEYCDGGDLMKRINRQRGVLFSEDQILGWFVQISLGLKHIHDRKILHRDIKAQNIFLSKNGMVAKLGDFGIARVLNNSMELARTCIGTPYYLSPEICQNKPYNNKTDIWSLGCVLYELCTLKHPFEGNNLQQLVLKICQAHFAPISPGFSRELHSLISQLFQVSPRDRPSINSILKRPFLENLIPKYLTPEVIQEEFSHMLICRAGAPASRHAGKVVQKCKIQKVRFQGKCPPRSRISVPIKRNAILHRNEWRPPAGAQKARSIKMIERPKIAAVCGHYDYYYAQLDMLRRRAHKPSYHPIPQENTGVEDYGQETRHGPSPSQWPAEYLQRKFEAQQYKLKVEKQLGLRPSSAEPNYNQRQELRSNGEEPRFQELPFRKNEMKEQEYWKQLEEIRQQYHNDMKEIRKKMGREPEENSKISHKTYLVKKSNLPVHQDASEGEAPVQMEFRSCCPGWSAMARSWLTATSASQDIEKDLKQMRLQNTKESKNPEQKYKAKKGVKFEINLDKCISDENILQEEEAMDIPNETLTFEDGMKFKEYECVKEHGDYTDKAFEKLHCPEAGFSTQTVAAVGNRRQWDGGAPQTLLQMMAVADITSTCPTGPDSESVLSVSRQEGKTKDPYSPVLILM
Put plainly: Inhibition of NEK5 (unknown origin) at 10 uM relative to control.

The target of assay [20] is Serine/threonine-protein kinase Nek6 (Homo sapiens) (UniProt Q9HC98). Put plainly: Inhibition of NEK6 (unknown origin) at 10 uM relative to control.
Assay [21] deals with Serine/threonine-protein kinase Nek7 (Homo sapiens) (UniProt Q8TDX7). Put plainly: Inhibition of NEK7 (unknown origin) at 10 uM relative to control.
Assay [22] has as its target T2, Serine/threonine-protein kinase Nek9 (Homo sapiens). Put plainly: Inhibition of NEK9 (unknown origin) at 10 uM relative to control.
Assay [23] deals with Serine/threonine-protein kinase Nek4 (Homo sapiens) (UniProt P51957). Put plainly: Inhibition of NEK4 (unknown origin) at 100 nM relative to control.
The target in assay [24] is Mitogen-activated protein kinase kinase kinase 8 (Homo sapiens, UniProt P41279). Put plainly: Inhibition of MAP3K8 (unknown origin).

The inhibition is the drop in the measured response relative to a control, in per cent. The term Kd denotes the concentration at which binding is half-saturated. For orientation: IC50 means the concentration needed to halve the response being measured. A low value points to greater potency in that assay.

Sequence of Serine/threonine-protein kinase Nek7 (Homo sapiens) (Q8TDX7 whole entry, looked up): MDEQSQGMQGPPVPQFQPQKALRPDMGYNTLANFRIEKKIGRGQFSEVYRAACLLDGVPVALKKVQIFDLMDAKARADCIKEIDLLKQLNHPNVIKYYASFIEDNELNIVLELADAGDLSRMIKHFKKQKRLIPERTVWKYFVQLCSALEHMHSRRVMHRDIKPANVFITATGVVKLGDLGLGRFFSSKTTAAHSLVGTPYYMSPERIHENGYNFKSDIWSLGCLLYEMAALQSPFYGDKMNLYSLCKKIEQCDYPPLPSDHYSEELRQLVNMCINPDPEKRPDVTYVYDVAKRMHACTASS
Sequence of Serine/threonine-protein kinase Nek6 (Homo sapiens) (Q9HC98 whole entry): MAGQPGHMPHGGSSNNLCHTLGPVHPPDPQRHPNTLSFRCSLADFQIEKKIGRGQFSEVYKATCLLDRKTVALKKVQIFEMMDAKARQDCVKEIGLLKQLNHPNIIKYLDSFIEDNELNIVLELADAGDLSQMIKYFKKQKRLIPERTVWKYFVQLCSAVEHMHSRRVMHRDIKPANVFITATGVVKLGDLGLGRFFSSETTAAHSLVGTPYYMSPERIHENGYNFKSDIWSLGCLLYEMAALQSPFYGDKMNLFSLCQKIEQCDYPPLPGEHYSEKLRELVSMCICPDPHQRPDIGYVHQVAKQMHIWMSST
Sequence of Serine/threonine-protein kinase Nek4 (Homo sapiens) (P51957 whole entry, looked up): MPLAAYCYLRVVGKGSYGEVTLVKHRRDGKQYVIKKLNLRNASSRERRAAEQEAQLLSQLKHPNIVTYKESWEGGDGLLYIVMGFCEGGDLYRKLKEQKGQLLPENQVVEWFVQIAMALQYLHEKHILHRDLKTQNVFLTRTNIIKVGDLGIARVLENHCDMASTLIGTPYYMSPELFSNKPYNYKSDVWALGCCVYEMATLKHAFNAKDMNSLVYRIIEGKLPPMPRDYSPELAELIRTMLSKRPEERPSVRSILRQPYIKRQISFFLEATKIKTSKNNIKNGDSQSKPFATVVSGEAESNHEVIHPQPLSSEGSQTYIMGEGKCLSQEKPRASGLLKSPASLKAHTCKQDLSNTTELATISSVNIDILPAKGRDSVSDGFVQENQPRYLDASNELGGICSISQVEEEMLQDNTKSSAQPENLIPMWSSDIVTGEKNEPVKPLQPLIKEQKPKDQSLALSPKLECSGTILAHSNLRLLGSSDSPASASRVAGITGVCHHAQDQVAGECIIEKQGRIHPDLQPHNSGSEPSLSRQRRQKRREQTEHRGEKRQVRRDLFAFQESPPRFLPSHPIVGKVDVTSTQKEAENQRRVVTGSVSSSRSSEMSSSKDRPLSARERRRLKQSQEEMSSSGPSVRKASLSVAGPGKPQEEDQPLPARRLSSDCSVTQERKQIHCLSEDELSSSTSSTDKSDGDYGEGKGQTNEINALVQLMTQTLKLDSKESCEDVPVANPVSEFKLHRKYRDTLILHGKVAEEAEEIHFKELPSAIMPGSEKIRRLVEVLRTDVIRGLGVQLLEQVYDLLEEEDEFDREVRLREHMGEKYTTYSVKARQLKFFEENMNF
Sequence of Mitogen-activated protein kinase kinase kinase 8 (P41279 whole entry): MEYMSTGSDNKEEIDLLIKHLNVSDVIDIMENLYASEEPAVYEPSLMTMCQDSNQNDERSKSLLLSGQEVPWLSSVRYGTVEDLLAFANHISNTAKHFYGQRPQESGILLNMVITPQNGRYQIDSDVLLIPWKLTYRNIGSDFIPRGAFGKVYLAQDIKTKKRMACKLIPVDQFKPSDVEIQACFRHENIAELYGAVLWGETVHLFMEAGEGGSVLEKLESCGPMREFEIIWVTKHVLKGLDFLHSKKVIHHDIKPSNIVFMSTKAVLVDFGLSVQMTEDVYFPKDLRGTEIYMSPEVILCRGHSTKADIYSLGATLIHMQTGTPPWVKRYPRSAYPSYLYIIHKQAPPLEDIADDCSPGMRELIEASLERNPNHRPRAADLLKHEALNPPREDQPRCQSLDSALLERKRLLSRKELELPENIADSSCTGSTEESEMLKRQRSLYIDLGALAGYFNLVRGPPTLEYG

`COc1cc(Nc2ncc3c(C)nc(-c4cccc(C(F)(F)F)c4)n3n2)cc(OC)c1OC`: the inhibition in assay [1] is 38%; in [2] it was 9%; in [3], 10%; in assay [4] it was 86%; in [5] it was 5%; in assay [6], 8%. Besides, the inhibition was 4% in [7], 6% in [8] and 55% in assay [9].

Take `COCCOc1cc2c(-n3nc(-c4ccccn4)nc3N)ncnc2cc1OC`: the inhibition in assay [10] is 78%.

`N#CCNC(=O)c1ccc(-c2ccnc(Nc3ccc(N4CCOCC4)cc3)n2)cc1` [MOMELOTINIB]: the Kd in assay [11], in assay [12] and in assay [13] was under 100 nM throughout. Also, the IC50 in assay [14] is 100 nM.

On to `CCCS(=O)(=O)Nc1ccc(F)c(C(=O)c2c[nH]c3ncc(-c4ccc(Cl)cc4)cc23)c1F` [VEMURAFENIB], for which the Kd in assay [15] came to 5 µM. In addition, the % control in assay [16] came out at 49%; in assay [17] it was 69%; in assay [18], 71%; in [19], 100%; in assay [20], 91%; in [21], 59%. The compound also gave a % control in assay [22] of 66%.

With `COc1cc(Nc2ncc3c(C)nc(-c4cccc(Oc5ccccc5)c4)n3n2)cc(OC)c1OC`, the inhibition in assay [1] was 32%; in assay [2], 81%; in [3], 2%; in assay [4], -1%; in assay [5], 3%; in assay [6], 7%. In addition, the inhibition in assay [7] was 29%; in assay [8], 4%; in [9], 3%.

In the case of `NC(=O)c1ccc(-c2ccc(Oc3cncc4sc(-c5nn[nH]n5)cc34)cc2)cc1`, the inhibition in assay [23] was 89.9%. The same compound showed an IC50 in assay [24] of 150 nM.
